How the values were obtained:
mTOR = experiment: Immunofluorescence of mTOR/LAMP2 co-localization in Hep3B cells; format: cell-based; settings: treated 2 hours
Source text: Arrows highlight the co-localization of mTOR and lysosomal marker LAMP2. […] Student's t-test, *P<0.05, compared to respective controls.

DEN-induced liver tumors = experiment: DEN-injected mice fed BCAA-supplemented diets with Fenofibrate or BT2; format: in vivo; settings: 8 months after DEN injection; LFD+BCAA or HFD+BCAA with 0.05% Fenofibrate or 0.02% BT2
Source text: Analysis of mice 8 months after DEN injection, fed either a low fat diet (LFD, 10% kcal from fat) or high fat diet (HFD, 45% kcal from fat) with normal or high (+150%) levels of BCAAs. […] Hazard ratios (with 95% confidence intervals) based on BCAA intake, adjusted for age, sex, race, total kcal, usual dietary intake, diet change, physical activity, intentional weight loss, waist circumference, smoking, education, and prior diagnosis of cancer, diabetes and cardiovascular disease, additionally adjusted for % kcal from other macronutrients. […] Substitution analysis comparing change in risk when replacing BCAAs with carbohydrate or fat, with the same adjustments as HR2 except total kcal and % kcal from nonBCAA protein. Data are presented as hazard ratio (solid line) with 95% confidence interval (shaded area). […] Student's t-test, *P<0.05 vs. LFD, § P<0.05 vs HFD. †P<0.05 vs LFD+BCAA. ‡P<0.05 vs HFD+BCAA. […]
All animal studies were approved by the Institutional Animal Care and Use Committee at A*STAR. […] For rat DEN model, DEN was given to 10 week-old rats via drinking water containing 100 mg/L DEN for up to 4 months, and control rat livers from age-matched rats were analyzed. […] Livers were resected, measured by electronic calipers and snap frozen in liquid nitrogen. […] Body weights were measured weekly and prior to sacrifice lean and fat mass were measured by an EchoMRI Body Composition Analyzer. […]

HCC cell lines = experiment: Real-time cell proliferation (xCELLigence) of liver cancer cell lines treated with compounds; format: cell-based
Experimental: Cell Culture. Cell lines were obtained [Huh7 from Japanese Collection of Research Bioresources; Hep3B, SNU182, SNU387, SNU398, and SNU449 from ATCC; and Morris Hepatoma 3924a from German Cancer Research Center Tumor Collection] and not further verified. Only cell stocks that had been verified mycoplasma-negative within the prior 9 months were used. All cell lines were maintained in RPMI 1640 with 10% FBS and 1% Pen Strep (Gibco) and grown in a 37° C. humidified incubator with 5% CO2. Real-time cell growth measurements were taken on an xCELLigence RTCA SP (Acea) at 15-minute intervals. For compound treatment growth curves, cells were seeded in quadruplicate at 1,250, 2,500 or 5,000 cells per well and normalized 12 hours later (time 0 hours), immediately prior to changing half of the media to add compounds or vehicle. […] For immunoblots, cells were seeded in 10 cm dishes and allowed to grow for at least 24 hours. At approximately 80% confluence the media was changed to include indicated amounts of compound or vehicle (DMSO) and whole cell lysates were harvested 2 hours later. […] Results shown are one of at least three independent experiments.

mTOR pathway = experiment: Immunoblots of mTOR pathway activity after 2 hours of compound treatment; format: cell-based; settings: HCC cell lines, 2 hours of treatment
Experimental: All cell lines were maintained in RPMI 1640 with 10% FBS and 1% Pen Strep (Gibco) and grown in a 37° C. humidified incubator with 5% CO2. […] For immunoblots, cells were seeded in 10 cm dishes and allowed to grow for at least 24 hours. At approximately 80% confluence the media was changed to include indicated amounts of compound or vehicle (DMSO) and whole cell lysates were harvested 2 hours later. […] For immunoblots, cells were seeded in 10 or 15 cm dishes, and were split or received media change every 3-4 days to maintain a doxycycline concentration of 250 μg/mL. After 10 days, cells were harvested as whole cell lysates, or as purified mitochondrial fractions using an isolation kit (Thermo Fisher). Results shown are one of at least three independent experiments. […] For immunoblots, cells were seeded into 10 cm or 15 cm dishes and harvested 5 days later as whole cell lysates or purified mitochondrial fractions, when the cells were approximately 80% confluent.
Antibodies were obtained from Cell Signaling [Cleaved Caspase 3 (9664), Cox IV (4844), p-Histone H2A.X (9718), S6 (2317), p-S6 (4858), S6K (9202), p-S6K (9234)], Santa Cruz [Bckdha (sc-67200), Bckdhb (sc160974), Gapdh (sc-32233)], Bethyl [p-Bckdha (A304-672A)], Sigma [Tubulin (T5168), Acads (HPA022271)], and Abcam [Acadsb (ab99951), Bckdk (ab125389 and ab151297), Ki67 (ab15580)]. […]

Row | Structure (SMILES) | mTOR subcellular localization (co-localization of mTOR and lysosomal marker LAMP2) (mTOR) | tumor promoting effects of BCAA-supplemented diets (number of tumors ≥3 mm, size of largest tumor) (DEN-induced liver tumors) | sensitivity of HCC cell lines to mTOR inhibitors (HCC cell lines; all HCC cell lines examined, proliferation and mTOR pathway immunoblots) | cell proliferation (real-time proliferation curves, divisions per day) (HCC cell lines; panel of HCC cell lines, rates over 48-hour period) | mTOR activity (immunoblots) (mTOR pathway)
1 | CC(C)OC(=O)C(C)(C)Oc1ccc(C(=O)c2ccc(Cl)cc2)cc1 [Fenofibrate, propan-2-yl 2-[4-(4-chlorobenzoyl)phenoxy]-2-methylpropanoate] | no significant co-localization was observed | able to reverse the tumor promoting effects |  |  | 
2 | CCC(=O)N1CCN(c2ccc(-n3c(=O)ccc4cnc5ccc(-c6cnc7ccccc7c6)cc5c43)cc2C(F)(F)F)CC1 [Torin 1] |  |  | at least partially sensitive |  | 
3 | O=C(O)c1sc2cc(Cl)ccc2c1Cl [BT2, 3,6-dichlorobenzo[b]thiophene-2-carboxylic acid] | no significant co-localization was observed | able to reverse the tumor promoting effects |  | potent dose-dependent decrease in cell proliferation | broad loss of mTOR activity

Reference: US20190083436A1, “METHODS OF DIAGNOSING CANCER” (AGENCY FOR SCIENCE, TECHNOLOGY AND RESEARCH, priority 2016, published 2019)
